Reference: paper PMC5218480 (PLoS ONE, 2017)

Test system: MV-4-11 cells
Experiment: Gene expression microarray analysis (Affymetrix PrimeView) and GSEA
Format: cell-based, human
Parameters: RFU PODN (11730768_x_at) / Fold change /veh PODN (11730768_x_at) / RFU LINC00158 (11744669_a_at) / Fold change /veh LINC00158 (11744669_a_at) / RFU DUSP10 (11751237_a_at) / Fold change /veh DUSP10 (11751237_a_at) / RFU ID3 (11757404_x_at) / Fold change /veh ID3 (11757404_x_at) / RFU PLEKHG5 (11737974_s_at) / Fold change /veh PLEKHG5 (11737974_s_at) / RFU LRRC4B (11730491_at) / Fold change /veh LRRC4B (11730491_at) / RFU GIMAP4 (11747438_a_at) / Fold change /veh GIMAP4 (11747438_a_at) / RFU KRT8 (11758183_x_at) / Fold change /veh KRT8 (11758183_x_at) / RFU CNN1 (11734310_a_at) / Fold change /veh CNN1 (11734310_a_at) / RFU VPS37D (11726825_at) / Fold change /veh VPS37D (11726825_at) / RFU C10orf10 (11716522_x_at) / Fold change /veh C10orf10 (11716522_x_at) / RFU KIR2DL2 /// KIR2DL4 /// KIR2DL5A /// KIR2DL5B /// KIR2DS1 /// KIR2DS2 /// KIR2DS3 /// KIR2DS4 /// KIR3DL3 /// KIR3DL3 /// KIR3DS1 (11738374_at) / Fold change /veh KIR2DL2 /// KIR2DL4 /// KIR2DL5A /// KIR2DL5B /// KIR2DS1 /// KIR2DS2 /// KIR2DS3 /// KIR2DS4 /// KIR3DL3 /// KIR3DL3 /// KIR3DS1 (11738374_at) / RFU C1QL1 (11718748_at) / Fold change /veh C1QL1 (11718748_at) / RFU TMPRSS4 (11747572_a_at) / Fold change /veh TMPRSS4 (11747572_a_at) / RFU HAMP (11756126_x_at) / Fold change /veh HAMP (11756126_x_at) / RFU RNFT2 (11725882_a_at) / Fold change /veh RNFT2 (11725882_a_at) / RFU NR4A2 (11747474_a_at) / Fold change /veh NR4A2 (11747474_a_at) / RFU ABCC12 (11746883_a_at) / Fold change /veh ABCC12 (11746883_a_at) / RFU TMEM136 (11760407_x_at) / Fold change /veh TMEM136 (11760407_x_at) / RFU CLDN22 /// WWC2 (11732394_at) / Fold change /veh CLDN22 /// WWC2 (11732394_at) / RFU HLA-DPB1 (11760878_x_at) / Fold change /veh HLA-DPB1 (11760878_x_at) / RFU SPINT1 (11716480_a_at) / Fold change /veh SPINT1 (11716480_a_at) / RFU GAP43 (11754022_s_at) / Fold change /veh GAP43 (11754022_s_at) / RFU A4GNT (11735810_at) / Fold change /veh A4GNT (11735810_at) / RFU PRB3 (11715151_x_at) / Fold change /veh PRB3 (11715151_x_at) / RFU TUBB4B (11761932_at) / Fold change /veh TUBB4B (11761932_at) / RFU CAPN14 (11732068_a_at) / Fold change /veh CAPN14 (11732068_a_at) / RFU TMCC2 (11721928_a_at) / Fold change /veh TMCC2 (11721928_a_at) / RFU IRGQ (11745062_a_at) / Fold change /veh IRGQ (11745062_a_at) / RFU FAM174B (11720279_a_at) / Fold change /veh FAM174B (11720279_a_at) / RFU TMPRSS4 (11748680_a_at) / Fold change /veh TMPRSS4 (11748680_a_at) / RFU FAM212B (11763350_a_at) / Fold change /veh FAM212B (11763350_a_at) / RFU PLEKHG5 (11743358_a_at) / Fold change /veh PLEKHG5 (11743358_a_at) / RFU ZSCAN30 (11745921_a_at) / Fold change /veh ZSCAN30 (11745921_a_at) / RFU CMKLR1 (11741424_a_at) / Fold change /veh CMKLR1 (11741424_a_at) / RFU LOC101060620 /// MAPK8IP1 (11723275_at) / Fold change /veh LOC101060620 /// MAPK8IP1 (11723275_at) / RFU SPTSSB (11747773_x_at) / Fold change /veh SPTSSB (11747773_x_at) / RFU PRSS12 (11739890_at) / Fold change /veh PRSS12 (11739890_at) / RFU BIN1 (11741810_x_at) / Fold change /veh BIN1 (11741810_x_at) / RFU WNT11 (11732464_a_at) / Fold change /veh WNT11 (11732464_a_at) / RFU C10orf10 (11716521_a_at) / Fold change /veh C10orf10 (11716521_a_at) / RFU C5orf56 (11738089_at) / Fold change /veh C5orf56 (11738089_at) / RFU CYB561 (11721691_x_at) / Fold change /veh CYB561 (11721691_x_at) / RFU ANKRD19P (11752326_a_at) / Fold change /veh ANKRD19P (11752326_a_at) / RFU OR2T12 /// OR2T33 /// OR2T8 (11738714_s_at) / Fold change /veh OR2T12 /// OR2T33 /// OR2T8 (11738714_s_at) / RFU VCAN (11748164_a_at) / Fold change /veh VCAN (11748164_a_at) / RFU JSRP1 (11732532_at) / Fold change /veh JSRP1 (11732532_at) / RFU KRTAP10-11 (11738290_x_at) / Fold change /veh KRTAP10-11 (11738290_x_at) / RFU MYO3A (11730013_a_at) / Fold change /veh MYO3A (11730013_a_at) / RFU EBF3 (11725865_a_at) / Fold change /veh EBF3 (11725865_a_at) / RFU CAMK2N1 (11719241_x_at) / Fold change /veh CAMK2N1 (11719241_x_at) / RFU C5orf56 (11738088_a_at) / Fold change /veh C5orf56 (11738088_a_at) / RFU OLFML3 (11715873_a_at) / Fold change /veh OLFML3 (11715873_a_at) / RFU LOC100653217 /// NTM (11731650_a_at) / Fold change /veh LOC100653217 /// NTM (11731650_a_at) / RFU MAPK11 (11762145_a_at) / Fold change /veh MAPK11 (11762145_a_at) / RFU FIZ1 (11724087_x_at) / Fold change /veh FIZ1 (11724087_x_at) / RFU OASL (11726364_x_at) / Fold change /veh OASL (11726364_x_at) / RFU SOX15 (11748057_x_at) / Fold change /veh SOX15 (11748057_x_at) / RFU CD79A (11719716_a_at) / Fold change /veh CD79A (11719716_a_at) / RFU HIST1H1D (11736915_at) / Fold change /veh HIST1H1D (11736915_at) / RFU CASKIN2 (11723855_a_at) / Fold change /veh CASKIN2 (11723855_a_at) / RFU LOC730098 (11760151_x_at) / Fold change /veh LOC730098 (11760151_x_at) / RFU OR4N2 (11742367_at) / Fold change /veh OR4N2 (11742367_at) / RFU PRRT2 (11749266_a_at) / Fold change /veh PRRT2 (11749266_a_at) / RFU SNX32 (11753110_a_at) / Fold change /veh SNX32 (11753110_a_at) / RFU CDHR5 (11726645_a_at) / Fold change /veh CDHR5 (11726645_a_at) / RFU RCAN1 (11760418_a_at) / Fold change /veh RCAN1 (11760418_a_at) / RFU FAM167A (11723789_a_at) / Fold change /veh FAM167A (11723789_a_at) / RFU FAM26E (11764081_at) / Fold change /veh FAM26E (11764081_at) / RFU ISYNA1 (11749810_s_at) / Fold change /veh ISYNA1 (11749810_s_at) / RFU ACY1 (11761880_at) / Fold change /veh ACY1 (11761880_at) / RFU 11764098_at / Fold change /veh 11764098_at / RFU SAMD14 (11745864_x_at) / Fold change /veh SAMD14 (11745864_x_at) / RFU NPB (11741838_a_at) / Fold change /veh NPB (11741838_a_at) / RFU TMPRSS6 (11731388_a_at) / Fold change /veh TMPRSS6 (11731388_a_at) / RFU KRTAP10-2 (11738614_at) / Fold change /veh KRTAP10-2 (11738614_at) / RFU ARHGAP8 /// PRR5-ARHGAP8 (11727945_x_at) / Fold change /veh ARHGAP8 /// PRR5-ARHGAP8 (11727945_x_at) / RFU KRTAP5-7 /// NADSYN1 (11734609_at) / Fold change /veh KRTAP5-7 /// NADSYN1 (11734609_at) / RFU RASL12 (11751679_a_at) / Fold change /veh RASL12 (11751679_a_at) / RFU CDKN2B (11736163_a_at) / Fold change /veh CDKN2B (11736163_a_at) / RFU PRF1 (11729649_at) / Fold change /veh PRF1 (11729649_at) / RFU, ZNF638 /// ZNF638-IT1 / Fold change vs veh, ZNF638 /// ZNF638-IT1 / RFU, PANK3 / Fold change vs veh, PANK3 / RFU, SH3YL1 / Fold change vs veh, SH3YL1 / RFU, ZEB2 / Fold change vs veh, ZEB2 / RFU, NRIP1 / Fold change vs veh, NRIP1 / RFU, PTTG1IP / Fold change vs veh, PTTG1IP / RFU, CAPN2 / Fold change vs veh, CAPN2 / RFU, MED14 / Fold change vs veh, MED14 / RFU, SNORA58 / Fold change vs veh, SNORA58 / RFU, C1orf63 / Fold change vs veh, C1orf63 / RFU, LRRFIP1 / Fold change vs veh, LRRFIP1 / RFU, NDUFAF7 / Fold change vs veh, NDUFAF7 / RFU, SLC12A2 / Fold change vs veh, SLC12A2 / RFU, IBTK / Fold change vs veh, IBTK / RFU, ESF1 / Fold change vs veh, ESF1 / Fold change vs veh, TMEM50B / RFU, TAOK1 / Fold change vs veh, TAOK1 / RFU, ACBD3 / Fold change vs veh, ACBD3 / RFU, TMA16 / Fold change vs veh, TMA16 / RFU, RWDD3 / Fold change vs veh, RWDD3 / RFU, BCAT1 / Fold change vs veh, BCAT1 / RFU, EDEM3 / Fold change vs veh, EDEM3 / RFU, TMEM33 / Fold change vs veh, TMEM33 / RFU, WDR75 / Fold change vs veh, WDR75 / RFU, AHCTF1 / Fold change vs veh, AHCTF1 / RFU, TFRC / Fold change vs veh, TFRC / RFU, ZDHHC17 / Fold change vs veh, ZDHHC17 / RFU, NOM1 / Fold change vs veh, NOM1 / RFU, ARL8B / Fold change vs veh, ARL8B / RFU, ZBTB11 / Fold change vs veh, ZBTB11 / RFU, TAMM41 / Fold change vs veh, TAMM41 / RFU, KIAA1704 /// LOC100996395 / Fold change vs veh, KIAA1704 /// LOC100996395 / RFU, ING1 / Fold change vs veh, ING1 / RFU, TRMT61B / Fold change vs veh, TRMT61B / RFU, FUBP3 / Fold change vs veh, FUBP3 / RFU, TP53 / Fold change vs veh, TP53 / RFU, TNKS2 / Fold change vs veh, TNKS2 / RFU, ZFP14 / Fold change vs veh, ZFP14 / RFU, ACTR2 / Fold change vs veh, ACTR2 / RFU, PPP3R1 / Fold change vs veh, PPP3R1 / RFU, PIK3R1 / Fold change vs veh, PIK3R1 / RFU, HNRNPA1 / Fold change vs veh, HNRNPA1 / RFU, RNF170 / Fold change vs veh, RNF170 / RFU, ZNF28 / Fold change vs veh, ZNF28 / RFU, RNGTT / Fold change vs veh, RNGTT / RFU, OGT / Fold change vs veh, OGT / RFU, BRD1 / Fold change vs veh, BRD1 / RFU, MARS / Fold change vs veh, MARS / RFU, ZNF655 / Fold change vs veh, ZNF655 / RFU, FAHD1 / Fold change vs veh, FAHD1 / RFU, BDP1 / Fold change vs veh, BDP1 / RFU, LRRCC1 / Fold change vs veh, LRRCC1 / RFU, ARID1A / Fold change vs veh, ARID1A / RFU, ZNF146 / Fold change vs veh, ZNF146 / RFU, ZNF330 / Fold change vs veh, ZNF330 / RFU, GPN3 / Fold change vs veh, GPN3 / RFU, C9orf123 / Fold change vs veh, C9orf123 / RFU, N4BP2L2 / Fold change vs veh, N4BP2L2 / RFU, ARFIP1 / Fold change vs veh, ARFIP1 / RFU, FAM179B / Fold change vs veh, FAM179B / RFU, BCL10 / Fold change vs veh, BCL10 / RFU, UHRF1BP1L / Fold change vs veh, UHRF1BP1L / RFU, BET1 / Fold change vs veh, BET1 / RFU, CNOT2 / Fold change vs veh, CNOT2 / RFU, ZNF268 / Fold change vs veh, ZNF268 / Fold change vs veh, ZNF507 / RFU, DGCR2 / Fold change vs veh, DGCR2 / RFU, WDSUB1 / Fold change vs veh, WDSUB1 / Fold change vs veh, HSP90B1 /// MIR3652 / RFU, ADSS / Fold change vs veh, ADSS / RFU, GK / Fold change vs veh, GK / RFU, ZNF148 / Fold change vs veh, ZNF148 / RFU, TAF9 / Fold change vs veh, TAF9 / RFU, SLC1A5 / Fold change vs veh, SLC1A5 / RFU, SLMO2 / Fold change vs veh, SLMO2 / RFU, ABCC4 / Fold change vs veh, ABCC4 / RFU, LOC101060439 /// RAP1B / Fold change vs veh, LOC101060439 /// RAP1B / RFU, RFX7 / Fold change vs veh, RFX7 / RFU, GTPBP10 / Fold change vs veh, GTPBP10 / RFU, CNEP1R1 / Fold change vs veh, CNEP1R1 / RFU, BIVM-ERCC5 /// ERCC5 / Fold change vs veh, BIVM-ERCC5 /// ERCC5 / RFU, ILF3 / Fold change vs veh, ILF3 / RFU 11762660_at / Fold change /veh 11762660_at / RFU VCAN (11757783_s_at) / Fold change /veh VCAN (11757783_s_at) / RFU DDX43 (11728927_at) / Fold change /veh DDX43 (11728927_at) / RFU KRT8 (11758188_x_at) / Fold change /veh KRT8 (11758188_x_at) / RFU NKD1 (11759106_at) / Fold change /veh NKD1 (11759106_at) / RFU SRD5A1 (11742802_a_at) / Fold change /veh SRD5A1 (11742802_a_at) / RFU TPSAB1 /// TPSB2 (11721975_s_at) / Fold change /veh TPSAB1 /// TPSB2 (11721975_s_at) / RFU GSTM3 (11746129_a_at) / Fold change /veh GSTM3 (11746129_a_at) / RFU IL23R (11737362_x_at) / Fold change /veh IL23R (11737362_x_at) / RFU TMEM51 (11727254_a_at) / Fold change /veh TMEM51 (11727254_a_at) / RFU PIWIL2 (11732686_x_at) / Fold change /veh PIWIL2 (11732686_x_at) / RFU ORM1 (11744905_x_at) / Fold change /veh ORM1 (11744905_x_at) / RFU CCDC152 (11743942_at) / Fold change /veh CCDC152 (11743942_at) / RFU ECM1 (11717891_a_at) / Fold change /veh ECM1 (11717891_a_at) / RFU IL23R (11748794_a_at) / Fold change /veh IL23R (11748794_a_at) / RFU TNFAIP8L3 (11732012_x_at) / Fold change /veh TNFAIP8L3 (11732012_x_at) / RFU MBOAT4 (11741988_at) / Fold change /veh MBOAT4 (11741988_at) / RFU 11764193_at / Fold change /veh 11764193_at / RFU TMEM53 (11763286_at) / Fold change /veh TMEM53 (11763286_at) / RFU MAGEB2 (11727129_at) / Fold change /veh MAGEB2 (11727129_at) / RFU TMEM200A (11744735_a_at) / Fold change /veh TMEM200A (11744735_a_at) / RFU CCDC152 (11751479_a_at) / Fold change /veh CCDC152 (11751479_a_at) / RFU FAM211A (11726209_a_at) / Fold change /veh FAM211A (11726209_a_at) / RFU RGS16 (11746705_a_at) / Fold change /veh RGS16 (11746705_a_at) / RFU VCAN (11755009_s_at) / Fold change /veh VCAN (11755009_s_at) / RFU RHOB (11743442_s_at) / Fold change /veh RHOB (11743442_s_at) / RFU RGS16 (11720943_a_at) / Fold change /veh RGS16 (11720943_a_at) / RFU RGS16 (11720944_at) / Fold change /veh RGS16 (11720944_at) / RFU, VPS4B / Fold change vs veh, VPS4B / RFU, CREB1 / Fold change vs veh, CREB1 / RFU, DNAJC13 / Fold change vs veh, DNAJC13 / RFU, GNAQ / Fold change vs veh, GNAQ / RFU, CDK5R1 / Fold change vs veh, CDK5R1 / RFU, ZRANB3 / Fold change vs veh, ZRANB3 / RFU, CUL4A / Fold change vs veh, CUL4A / RFU, CCNY / Fold change vs veh, CCNY / RFU, UFL1 / Fold change vs veh, UFL1 / RFU, COG3 / Fold change vs veh, COG3 / RFU, DIAPH2 / Fold change vs veh, DIAPH2 / RFU, SKA2 / Fold change vs veh, SKA2 / RFU, AFF3 / Fold change vs veh, AFF3 / RFU, LMF1 / Fold change vs veh, LMF1 / RFU, IPO11 / Fold change vs veh, IPO11 / RFU, DFFB / Fold change vs veh, DFFB / RFU, FOXP1 / Fold change vs veh, FOXP1 / RFU, CARD8 / Fold change vs veh, CARD8 / RFU, STRN3 / Fold change vs veh, STRN3 / RFU, ADK / Fold change vs veh, ADK / RFU, RASSF2 / Fold change vs veh, RASSF2 / RFU, WIPF1 / Fold change vs veh, WIPF1 / RFU, LARP1B / Fold change vs veh, LARP1B / RFU, RASA1 / Fold change vs veh, RASA1 / RFU, RB1 / Fold change vs veh, RB1 / RFU, PPFIA1 / Fold change vs veh, PPFIA1 / RFU, MAT2A / Fold change vs veh, MAT2A / RFU, CCT5 / Fold change vs veh, CCT5 / RFU, WDR92 / Fold change vs veh, WDR92 / RFU, CUX1 / Fold change vs veh, CUX1 / RFU, TTC7A / Fold change vs veh, TTC7A / RFU, TMEM135 / Fold change vs veh, TMEM135 / RFU, DEPTOR / Fold change vs veh, DEPTOR / RFU, CPM / Fold change vs veh, CPM / RFU, DNAJB6 / Fold change vs veh, DNAJB6 / RFU, CACNA2D3 / Fold change vs veh, CACNA2D3 / RFU, DTX4 / Fold change vs veh, DTX4 / RFU, TFCP2 / Fold change vs veh, TFCP2 / RFU, GMCL1 /// GMCL1P1 / Fold change vs veh, GMCL1 /// GMCL1P1 / RFU, AEBP2 / Fold change vs veh, AEBP2 / RFU, SNHG1 /// SNORD22 /// SNORD25 /// SNORD26 /// SNORD27 /// SNORD28 /// SNORD29 /// SNORD31 / Fold change vs veh, SNHG1 /// SNORD22 /// SNORD25 /// SNORD26 /// SNORD27 /// SNORD28 /// SNORD29 /// SNORD31 / Fold change (Aza/veh), C12orf56 (ProbeSet 11735607_a_at) / Fold change (ACY-1035/veh), C12orf56 (ProbeSet 11735607_a_at) / Fold change (Aza/veh), FGFR1OP (ProbeSet 11751329_s_at) / Fold change (ACY-1035/veh), FGFR1OP (ProbeSet 11751329_s_at) / Fold change (Aza/veh), VPS36 (ProbeSet 11739960_a_at) / Fold change (ACY-1035/veh), VPS36 (ProbeSet 11739960_a_at) / RFU SYPL1 (11715823_x_at) / Fold change /veh SYPL1 (11715823_x_at) / RFU IGFBP7 (11715501_s_at) / Fold change /veh IGFBP7 (11715501_s_at) / RFU REEP3 (11722064_at) / Fold change /veh REEP3 (11722064_at) / RFU IGLL1 (11728026_x_at) / Fold change /veh IGLL1 (11728026_x_at): dose or concentration left out as unconfirmed
Conditions: MV-4-11 cells, 48 hours

Nc1ncn([C@@H]2O[C@H](CO)[C@@H](O)[C@H]2O)c(=O)n1 [azacitidine]
Fold change /veh CDHR5 (11726645_a_at): 1.19
